Laboratory results published in the NIST ThermoML archive (doi:10.1016/j.fluid.2014.06.018).
± gives the expanded uncertainty stated by the source.

Details: 100 kPa, Liquid, capillary rise

SMILES	interfacial tension (302.15 K)	interfacial tension (313.15 K)	interfacial tension (333.15 K)	interfacial tension (343.15 K)	interfacial tension (298.15 K)	interfacial tension (324.15 K)	further results
CCCCCCCO [heptan-1-ol] + O	7.28 ± 0.08 mN/m	7.47 ± 0.08 mN/m	7.64 ± 0.08 mN/m	7.59 ± 0.08 mN/m			interfacial tension (323.15 K): 7.61 ± 0.08 mN/m
CCCCCCC [heptane] + O					50.6 ± 0.6 mN/m		interfacial tension (304.15 K): 50.1 ± 0.6 mN/m; interfacial tension (314.15 K): 49.3 ± 0.6 mN/m; interfacial tension (324.65 K): 48.4 ± 0.4 mN/m; interfacial tension (335.65 K): 47.4 ± 0.4 mN/m
CCCCCC [hexane] + O	49.7 ± 0.6 mN/m		47 ± 0.4 mN/m	46.2 ± 0.4 mN/m	50 ± 0.6 mN/m		interfacial tension (315.65 K): 48.5 ± 0.6 mN/m; interfacial tension (322.15 K): 47.9 ± 0.6 mN/m
CCCCCC(=O)O [hexanoic acid] + O			4.11 ± 0.09 mN/m	3.48 ± 0.08 mN/m		4.62 ± 0.08 mN/m	interfacial tension (304.65 K): 5.57 ± 0.09 mN/m; interfacial tension (313.65 K): 5.19 ± 0.08 mN/m
CCCCCCCCC [nonane] + O		50 ± 0.6 mN/m		47.6 ± 0.4 mN/m		49.2 ± 0.6 mN/m	interfacial tension (303.15 K): 50.9 ± 0.6 mN/m; interfacial tension (333.65 K): 48.4 ± 0.4 mN/m
CCCCCCCC [octane] + O			48 ± 0.4 mN/m	47.1 ± 0.4 mN/m			interfacial tension (312.65 K): 50.5 ± 0.6 mN/m; interfacial tension (323.65 K): 49.7 ± 0.6 mN/m; interfacial tension (330.65 K): 48.8 ± 0.6 mN/m
